Measurements as given in ChEMBL document CHEMBL1201862, “PubChem BioAssay data set” (2004).
Structures can show the parent of a compound that is named as a salt. Active and inactive are the calls of the source.

Tests used:
[1] = HEp-2 cell cytotoxicity, dose response, cytotoxicity control for RSV inhibitor project, HTS (AID 2410); format: functional; details: human respiratory syncytial virus
[2] = target: T1, Corticotropin-releasing factor receptor 2/Corticotropin-releasing factor-binding protein (Homo sapiens, UniProt P24387+Q13324); experiment: Dose Response confirmation of uHTS hits for small molecule antagonists of the CRF-binding protein and CRF-R2 receptor complex.; format: functional; details: read-out: IC50_Mean
T1 sequence (Q13324 whole entry): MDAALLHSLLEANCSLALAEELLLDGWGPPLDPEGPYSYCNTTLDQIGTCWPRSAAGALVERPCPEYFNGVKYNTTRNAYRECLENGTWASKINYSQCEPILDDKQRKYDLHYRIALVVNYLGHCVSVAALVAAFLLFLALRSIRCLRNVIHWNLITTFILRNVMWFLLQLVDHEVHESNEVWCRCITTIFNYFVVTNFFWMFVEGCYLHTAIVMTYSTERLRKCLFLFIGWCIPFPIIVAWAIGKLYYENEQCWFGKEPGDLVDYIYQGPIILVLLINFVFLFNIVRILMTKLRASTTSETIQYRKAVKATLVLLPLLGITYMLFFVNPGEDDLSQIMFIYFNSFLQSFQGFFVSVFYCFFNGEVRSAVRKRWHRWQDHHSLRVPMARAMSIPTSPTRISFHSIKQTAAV
T1 sequence (P24387 whole entry): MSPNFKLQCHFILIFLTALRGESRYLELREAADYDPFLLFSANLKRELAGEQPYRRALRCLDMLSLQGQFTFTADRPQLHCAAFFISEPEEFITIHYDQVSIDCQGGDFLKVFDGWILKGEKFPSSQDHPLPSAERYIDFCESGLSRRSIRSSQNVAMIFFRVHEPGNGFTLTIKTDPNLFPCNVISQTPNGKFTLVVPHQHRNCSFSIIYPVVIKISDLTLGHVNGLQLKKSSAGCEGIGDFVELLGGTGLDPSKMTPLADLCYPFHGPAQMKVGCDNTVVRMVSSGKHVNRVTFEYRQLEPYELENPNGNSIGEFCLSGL

[3] = target: T1, Corticotropin-releasing factor receptor 2/Corticotropin-releasing factor-binding protein; experiment: activators of CRF receptor 2 with binding protein – uHTS hits, confirmation (AID 602473); format: functional; details: read-out: EC50_Mean
Streptokinase A = target: T2, Streptokinase A (Streptococcus pyogenes serotype M1, UniProt P10520); experiment: S. pyogenes streptokinase expression inhibitors, potency, dose response, plasminogen activation absorbance, OD405 (AID 1914); format: functional, Streptococcus pyogenes M1 GAS;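 note: secreted streptokinase activity via plasminogen activation per viability signal from cell pellet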
T2 sequence (P10520 whole entry): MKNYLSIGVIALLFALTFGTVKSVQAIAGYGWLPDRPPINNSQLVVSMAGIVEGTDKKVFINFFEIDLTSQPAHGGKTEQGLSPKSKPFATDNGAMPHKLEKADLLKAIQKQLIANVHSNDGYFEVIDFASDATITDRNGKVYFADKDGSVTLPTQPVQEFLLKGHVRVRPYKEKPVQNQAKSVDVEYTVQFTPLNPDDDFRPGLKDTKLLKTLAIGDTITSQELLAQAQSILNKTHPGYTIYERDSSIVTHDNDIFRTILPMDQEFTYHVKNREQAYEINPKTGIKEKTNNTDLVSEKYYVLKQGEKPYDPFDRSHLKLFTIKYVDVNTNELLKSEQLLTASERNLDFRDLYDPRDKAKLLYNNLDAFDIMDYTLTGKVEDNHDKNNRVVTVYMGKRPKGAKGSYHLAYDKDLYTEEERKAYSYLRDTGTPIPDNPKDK

[4] = system: Streptococcus sp. 'group A'; experiment: growth inhibition of control SK(-) GAS strain, dose response, counter-screen for streptokinase expression inhibitor project, luminescence, kanamycin, BacTiterGlo, confirmation (AID 1900); format: functional, organism-based
Streptococcus = experiment: Group A Streptococcus viability loss, dose response, counter-screen for streptokinase expression inhibitor project, luminescence, BacTiterGlo (AID 1915); format: functional, organism-based;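 note: potency for reduction of bacterial viability or growth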
[5] = target: T3, Polyadenylate-binding protein 1 (Homo sapiens, UniProt P11940); experiment: PABP1 MLLE–PAM2 interaction inhibitors, dose response, miRNA deadenylation inhibitor project, biochemical, fluorescence polarization, Cy5-PAM2 peptide, secondary (AID 602260); format: functional; details: read-out: IC50_Mean
Genome polyprotein = Genome polyprotein (dengue virus type 2, UniProt P29990); experiment: Dengue-2 NS5 methyltransferase inhibitors, primary screen, biochemical, confirmation dose response (AID 588689); format: functional
[6] = target: T3, Polyadenylate-binding protein 1; experiment: PABP1 MLLE–PAM2 binding inhibitor potency, dose response, biochemical, fluorescence polarization, FITC-PAM2 peptide (AID 602259); format: functional; details: read-out: IC50_Mean
[7] = Luminescence Cell-Based Dose Retest to Confirm Inhibitors of Cancer Stem Cells. [Related pubchem assays (depositor defined):AID2717, AID2721]; format: functional; details: Homo sapiens
[8] = NIH-3T3 fibroblast cytotoxicity, dose response, cytotoxicity control, cell-based, fluorescence, Alamar Blue, secondary assay (AID 2327); format: functional;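 note: NIH-3T3 mouse fibroblasts cultured with fluconazole at 8 µg/mL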
[9] = C. albicans growth with fluconazole, confirmation, fluorescence, retest (AID 2467); format: functional, cell-based
[10] = inhibitors of firefly luciferase expression or activity, dose response, H4 neuroglioma cells, luminescence (AID 1990); format: functional, cell-based
[11] = Luminescence Cell-Based Dose Response HTS to Identify Inhibitors of 5'UTR Stem-Loop Driven Prion Protein mRNA Translation in H4 Neuroglioblastoma Cells. [Related pubchem assays: 1827 (Project Summary), 1813 (Primary HTS)]; format: functional
[12] = inhibitors of SNCA 5'UTR-driven reporter translation, confirmation, H4 neuroglioma cells, luminescence (AID 1988); format: functional, cell-based
Cytochrome P450 2D6 = Cytochrome P450 2D6 (Homo sapiens, UniProt P10635);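 note: CYP2D6 member of a cytochrome P450 panel assay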
Protein RecA = target: T4, Protein RecA (Mycobacterium tuberculosis, UniProt P9WHJ3); experiment: Fluorescence Cell-Free Homogeneous Dose Retest to Identify Inhibitors of RecA-Intein Splicing Activity. [Related pubchem assays (depositor defined):AID2097, AID2223, AID489010, AID492950]; format: functional
T4 sequence (P9WHJ3 whole entry): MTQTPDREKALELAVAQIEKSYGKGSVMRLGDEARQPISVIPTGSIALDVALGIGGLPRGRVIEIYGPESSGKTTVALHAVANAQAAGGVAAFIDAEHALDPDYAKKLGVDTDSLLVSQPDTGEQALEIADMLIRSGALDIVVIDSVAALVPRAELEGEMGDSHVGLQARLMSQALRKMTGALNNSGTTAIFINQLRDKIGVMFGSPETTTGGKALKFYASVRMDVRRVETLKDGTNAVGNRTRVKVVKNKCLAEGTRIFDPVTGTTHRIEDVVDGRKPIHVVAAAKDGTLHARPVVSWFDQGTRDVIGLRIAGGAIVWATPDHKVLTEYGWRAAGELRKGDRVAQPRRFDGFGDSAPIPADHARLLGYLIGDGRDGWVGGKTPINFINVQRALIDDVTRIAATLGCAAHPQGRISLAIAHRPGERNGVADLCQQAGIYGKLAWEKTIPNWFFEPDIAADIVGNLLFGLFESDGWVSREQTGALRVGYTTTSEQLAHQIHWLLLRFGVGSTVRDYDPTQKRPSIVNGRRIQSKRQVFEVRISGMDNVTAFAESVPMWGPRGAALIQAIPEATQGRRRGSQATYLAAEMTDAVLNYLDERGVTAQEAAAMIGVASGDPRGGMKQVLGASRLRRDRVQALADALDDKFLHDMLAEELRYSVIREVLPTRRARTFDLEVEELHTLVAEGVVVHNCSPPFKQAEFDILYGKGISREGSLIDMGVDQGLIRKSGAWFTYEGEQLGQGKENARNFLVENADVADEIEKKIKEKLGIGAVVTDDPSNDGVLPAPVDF

[13] = target: T5, Replicative DNA helicase DnaB (Mycobacterium tuberculosis, UniProt P9WMR3); experiment: DnaB intein splicing inhibitors, dose response, biochemical, cell-free fluorescence (AID 449749); format: functional
T5 sequence (P9WMR3 whole entry): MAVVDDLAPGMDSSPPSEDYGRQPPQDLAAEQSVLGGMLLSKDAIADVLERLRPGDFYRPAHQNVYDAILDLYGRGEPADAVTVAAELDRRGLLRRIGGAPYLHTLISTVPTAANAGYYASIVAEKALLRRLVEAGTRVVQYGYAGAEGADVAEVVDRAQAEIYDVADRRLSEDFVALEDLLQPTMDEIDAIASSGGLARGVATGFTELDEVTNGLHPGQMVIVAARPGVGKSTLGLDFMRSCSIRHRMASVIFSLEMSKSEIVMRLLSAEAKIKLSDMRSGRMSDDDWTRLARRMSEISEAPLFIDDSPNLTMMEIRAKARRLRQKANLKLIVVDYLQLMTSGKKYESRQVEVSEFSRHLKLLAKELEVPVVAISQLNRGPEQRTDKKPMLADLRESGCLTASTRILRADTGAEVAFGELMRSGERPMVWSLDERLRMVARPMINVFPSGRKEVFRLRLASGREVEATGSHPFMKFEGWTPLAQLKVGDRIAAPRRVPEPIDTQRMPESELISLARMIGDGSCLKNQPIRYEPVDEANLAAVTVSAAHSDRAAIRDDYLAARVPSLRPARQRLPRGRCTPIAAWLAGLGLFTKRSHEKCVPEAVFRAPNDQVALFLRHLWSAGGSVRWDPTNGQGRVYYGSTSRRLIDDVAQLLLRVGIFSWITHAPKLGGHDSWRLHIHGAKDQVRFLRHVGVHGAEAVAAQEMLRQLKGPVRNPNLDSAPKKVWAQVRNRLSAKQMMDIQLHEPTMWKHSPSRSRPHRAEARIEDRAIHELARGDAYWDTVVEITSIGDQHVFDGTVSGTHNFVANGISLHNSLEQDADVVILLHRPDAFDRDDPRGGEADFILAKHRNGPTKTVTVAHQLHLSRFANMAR

## O=C(Cn1c(=O)sc2ccccc21)Nc1nc2c(s1)CCCC2
[1]
  CC50: > 50 µM (active)

## CN(C)c1c([N+](=O)[O-])cc2[nH]c(O)nc2c1[N+](=O)[O-]
[1]
  CC50: 24.7 µM (active)

## C/C(=N\NC(=O)C1CC1)c1ccc(OC(F)F)cc1OC(F)F
[1]
  CC50: 30.8 µM (active)

## CN(CCOc1ccc(CC2SC(=O)NC2=O)cc1)c1ccccn1 (stereo unspecified) [ROSIGLITAZONE MALEATE]
[2]
  IC50: > 47.1 µM (inactive)
[3]
  EC50: > 53 µM (inactive)

## CCc1nc(SCC(=O)Nc2ccccc2OC)c2c(C)c(C)sc2n1
Streptokinase A
  EC50: > 150 µM (not active)
[4]
  EC50: 8.64 µM (active)
Streptococcus
  EC50: > 150 µM (not active)
[1]
  CC50: 26 µM (active)

## Cn1nc([N+](=O)[O-])c(C(C#N)c2nc3ccccc3n2C)c(Cl)c1=O (stereo unspecified)
[5]
  IC50: > 66 µM (inactive)
Genome polyprotein
  IC50: 16.7 µM (active)
[6]
  IC50: 30.8 µM (inactive)

## Cc1occc1C(=O)N/N=C/C(Br)=C\c1ccccc1
[1]
  CC50: 22.4 µM (active)

## NC(=O)c1ccc(NC(=O)COC(=O)c2c3c(nc4ccccc24)/C(=C\c2cccs2)CCC3)cc1
[7]
  AC50: 10.4 µM (active)

## N#C/C(=C(/O)COc1ccc(Cl)cc1)c1nc2ccccc2s1
[8]
  EC50: 93.5 µM (active)
[2]
  IC50: < 0.368 µM (active)
[3]
  EC50: > 53 µM (inactive)
[9]
  EC50: 0.191 µM (active)

## Cn1ccc(/C=N/NC2=NC(=O)CS2)n1
[1]
  CC50: 24.5 µM (active)

## CCOC(=O)c1c(C)[nH]c(C(=O)COC(=O)c2ccccc2NC(=O)c2ccco2)c1C
[1]
  CC50: > 50 µM (active)

## COc1ccc(CC(=O)ONC(=N)c2cccc([N+](=O)[O-])c2)cc1
[2]
  IC50: > 47.1 µM (inactive)
[3]
  EC50: > 53 µM (inactive)

## CCCCNC(=O)c1cn(CC)c2ccc(S(=O)(=O)N3CCCCCC3)cc2c1=O
[2]
  IC50: > 47.1 µM (inactive)
[3]
  EC50: > 53 µM (inactive)

## COC(=O)CCC(=O)OC1(C)C(=O)C2=CN(Cc3ccccc3)C(c3ccc(OC)cc3)=CC2=C(Br)C1=O (stereo unspecified)
Genome polyprotein
  IC50: 39.1 µM (active)

## CCOc1ccc(S(=O)(=O)Nc2cccnc2)cc1
[2]
  IC50: > 47.1 µM (inactive)
[3]
  EC50: > 53 µM (inactive)

## CCOC(=O)c1c(-c2cccc(Cl)c2)n[nH]c1N1C(=O)Nc2ccccc2N1O
[2]
  IC50: > 47.1 µM (inactive)
[3]
  EC50: > 53 µM (inactive)

## COc1cc(/C=C/c2noc(-c3ccccc3O)n2)ccc1OC(C)=O
[7]
  AC50: 3.44 µM (active)

## COc1c2c(c(OC)c3ccccc13)[C@@]1(OC2)O[C@H](CCO)C[C@H](O)[C@H]1O
[2]
  IC50: > 47.1 µM (inactive)
[3]
  EC50: > 53 µM (inactive)

## NC(=O)c1ccc2nc(-c3ccccc3)c(-c3ccccc3)nc2c1
[2]
  IC50: > 47.1 µM (inactive)
[3]
  EC50: > 53 µM (inactive)

## Cc1ccc(NC(=O)C2(NC(=O)c3cccc(N4C(=O)CSC4c4ccccc4)c3)CCCCC2)cc1 (stereo unspecified)
[10]
  EC50: > 120 µM (not active)
[11]
  EC50: > 120 µM (not active)
[12]
  EC50: > 120 µM (not active)
Cytochrome P450 2D6
  AC50: 1.12 µM (inconclusive)

## CCOC(=O)Cn1c2c(c(-c3ccccc3OC)cc1=O)CCCC2
[2]
  IC50: > 47.1 µM (inactive)
[3]
  EC50: > 53 µM (inactive)

## Cc1ccc(S(=O)(=O)Nc2cc(C(=O)Nc3cc(C)cc(C)c3)ccc2Cl)cc1
[2]
  IC50: > 47.1 µM (inactive)
[3]
  EC50: > 53 µM (inactive)

## COc1ccc2c([N+](=O)[O-])c(Cl)[nH]c2c1
Genome polyprotein
  IC50: > 100 µM (active)

## CC1=NN(c2ccccc2)C(=O)/C1=C/c1ccc(Cl)cc1
Protein RecA
  EC50: 1.35 µM (active)
Genome polyprotein
  IC50: 38.6 µM (active)
[13]
  AC50: 2.15 µM (active)
